From patent publication US20120225061A1, “TETRASUBSTITUTED CYCLOHEXYL COMPOUNDS AS KINASE INHIBITORS” (priority 2011, published 2012)

Experiments:
Pim2 kinase = Pim2 kinase (Homo sapiens, UniProt Q9P1W9); assay: Pim2 AlphaScreen assay (high ATP)
Procedure: (§1) The activity of Pim 1, Pim 2, & Pim 3 is measured using a homogeneous bead based system quantifying the amount of phosphorylated peptide substrate resulting from kinase-catalyzed phosphoryl transfer to a peptide substrate. Compounds to be tested are dissolved in 100% DMSO and directly distributed to a white 384-well plate at 0.25 μl per well. […] This is followed by the addition of 5 μl/well of Pim 1, Pim 2 or Pim 3 kinase in assay buffer (concentrations described below). Final assay concentrations (described below) are in 2.5% DMSO. The reactions are performed for ˜2 hours, then stopped by the addition of 10 μl of 0.75 μg/ml anti-phospho Ser/Thr antibody (Cell Signaling), 10 μg/ml Protein A AlphaScreen beads (Perkin Elmer), and 10 μg/ml streptavidin coated AlphaScreen beads in stop/detection buffer (50 mM EDTA, 95 mM Tris, pH=7.5, 0.01% Tween-20). The stopped reactions are incubated overnight in the dark. The phosphorylated peptide is detected via an oxygen anion initiated chemiluminescence/fluorescence cascade using the Envision plate reader (Perkin Elmer).

Pim3 kinase = Pim3 kinase (Homo sapiens, UniProt Q86V86); assay: Pim3 AlphaScreen assay (high ATP)
Procedure: as §1

Pim1 kinase = Pim1 kinase (Homo sapiens, UniProt P11309); assay: Pim1 AlphaScreen assay (high ATP)
Procedure: as §1

[1] = system: KMS11 (human myeloma cell line); assay: Cell proliferation assay (CellTiter-Glo) in KMS11 cells; type: cell-based; conditions: KMS-11, 72 h, Table 5, 3 days, read-out: KMS11-luc EC50
Procedure: KMS11 (human myeloma cell line), were cultured in IMDM supplemented with 10% FBS, sodium pyruvate and antibiotics. Cells were plated in the same medium at a density of 2000 cells per well into 96 well tissue culture plates, with outside wells vacant, on the day of assay.
Test compounds supplied in DMSO were diluted into DMSO at 500 times the desired final concentrations before dilution into culture media to 2 times final concentrations.
After 3 days plates were equilibrated to room temperature and equal volume of CellTiter-Glow Reagent (Promega) was added to the culture wells. The plates were agitated briefly and luminescent signal was measured with luminometer.

Chain of Pim2 kinase (Q9P1W9 whole entry): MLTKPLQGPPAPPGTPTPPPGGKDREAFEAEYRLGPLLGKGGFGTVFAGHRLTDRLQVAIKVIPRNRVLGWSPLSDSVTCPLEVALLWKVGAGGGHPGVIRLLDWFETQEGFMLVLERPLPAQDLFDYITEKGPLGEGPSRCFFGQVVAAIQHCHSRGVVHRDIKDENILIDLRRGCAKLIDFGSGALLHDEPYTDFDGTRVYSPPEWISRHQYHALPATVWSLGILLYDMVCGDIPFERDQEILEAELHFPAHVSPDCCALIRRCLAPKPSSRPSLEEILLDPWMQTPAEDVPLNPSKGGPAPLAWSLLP
Chain of Pim1 kinase (P11309 whole entry): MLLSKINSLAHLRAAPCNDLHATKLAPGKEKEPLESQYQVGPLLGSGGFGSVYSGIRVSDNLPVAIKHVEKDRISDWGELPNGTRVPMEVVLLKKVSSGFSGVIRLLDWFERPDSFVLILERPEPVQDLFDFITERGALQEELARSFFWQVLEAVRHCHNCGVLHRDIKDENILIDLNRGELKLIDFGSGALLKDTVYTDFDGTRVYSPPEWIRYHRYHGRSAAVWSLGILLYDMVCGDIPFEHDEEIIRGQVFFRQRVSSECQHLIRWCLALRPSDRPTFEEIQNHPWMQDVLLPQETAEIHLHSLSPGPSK

Row | SMILES | IC50 (Pim2 kinase) [nM] | IC50 (Pim3 kinase) [nM] | IC50 (Pim1 kinase) [nM] | EC50 [1] [nM]
1 | C[C@@H]1C[C@H](c2ccncc2NC(=O)c2ccc(F)c(-c3c(F)cc(C(C)(C)O)cc3F)n2)C[C@H](O)[C@@]1(C)O [Example 74, 6-(2,6-difluoro-4-(2-hydroxypropan-2-yl)phenyl)-N-(4-((1S,3S,4S,5R)-3,4-dihydroxy-4,5-dimethylcyclohexyl)pyridin-3-yl)-5-fluoropicolinamide] | 6340 | 2870 | 18.8 | 3470
2 | C[C@@H]1C[C@H](c2ccncc2NC(=O)c2ccc(F)c(-c3c(F)cc(C4(O)COC4)cc3F)n2)C[C@H](O)[C@@]1(C)O [Example 75] | 8640 | 5900 | 39.1 | 5780
3 | C[C@H]1C[C@@H](c2ccncc2NC(=O)c2ccc(F)c(-c3c(F)cc(C4(O)COC4)cc3F)n2)C[C@@H](O)[C@]1(C)O [Example 76] | 264 | 117 | 0.82 | 1140
4 | C[C@H]1C[C@@H](c2ccncc2NC(=O)c2ccc(F)c(-c3c(F)cc(CN4CCCC4=O)cc3F)n2)C[C@@H](O)[C@]1(C)O [Example 77, 6-(2,6-difluoro-4-((2-oxopyrrolidin-1-yl)methyl)phenyl)-N-(4-((1R,3R,4R,5S)-3,4-dihydroxy-4,5-dimethylcyclohexyl)pyridin-3-yl)-5-fluoropicolinamide] | 93.7 | 83.3 | 0.97 | 136
5 | C[C@@H]1C[C@H](c2ccncc2NC(=O)c2ccc(F)c(-c3c(F)cc(CN4CCCC4=O)cc3F)n2)C[C@H](O)[C@@]1(C)O [Example 78, 6-(2,6-difluoro-4-((2-oxopyrrolidin-1-yl)methyl)phenyl)-N-(4-((1S,3S,4S,5R)-3,4-dihydroxy-4,5-dimethylcyclohexyl)pyridin-3-yl)-5-fluoropicolinamide] | 1570 | 969 | 18.7 | > 10000
6 | C[C@@H]1C[C@H](c2ccncc2NC(=O)c2ccc(F)c(-c3c(F)cc(C4(O)CCCC4)cc3F)n2)C[C@H](O)[C@@]1(C)O [Example 79, 6-(2,6-difluoro-4-(1-hydroxycyclopentyl)phenyl)-N-(4-((1S,3S,4S,5R)-3,4-dihydroxy-4,5-dimethylcyclohexyl)pyridin-3-yl)-5-fluoropicolinamide] | 619 | 470 | 6.73 | > 10000
7 | C[C@H]1C[C@@H](c2ccncc2NC(=O)c2ccc(F)c(-c3c(F)cc(C4(O)CCCC4)cc3F)n2)C[C@@H](O)[C@]1(C)O [Example 80, 6-(2,6-difluoro-4-(1-hydroxycyclopentyl)phenyl)-N-(4-((1R,3R,4R,5S)-3,4-dihydroxy-4,5-dimethylcyclohexyl)pyridin-3-yl)-5-fluoropicolinamide] | 126 | 55 | 0.15 | 169
8 | C[C@H]1C[C@@H](c2ccncc2NC(=O)c2ccc(F)c(-c3c(F)cc(C4=CCCC4)cc3F)n2)C[C@@H](N)[C@]1(C)O [Example 81, N-(4-((1R,3R,4R,5S)-3-amino-4-hydroxy-4,5-dimethylcyclohexyl)pyridin-3-yl)-6-(4-cyclopentenyl-2,6-difluorophenyl)-5-fluoropicolinamide] | 4.42 | 0.94 | 0.03 | 409
9 | C[C@H]1C[C@@H](c2ccncc2NC(=O)c2ccc(F)c(-c3c(F)cc(C4(O)CCCC4)cc3F)n2)C[C@@H](N)[C@]1(C)O [Example 82, N-(4-((1R,3R,4R,5S)-3-amino-4-hydroxy-4,5-dimethylcyclohexyl)pyridin-3-yl)-6-(2,6-difluoro-4-(1-hydroxycyclopentyl)phenyl)-5-fluoropicolinamide] | 2.68 | 1.18 | 0.02 | 43
10 | C[C@H]1C[C@@H](c2ccncc2NC(=O)c2nc(-c3c(F)cc(C4(O)CCOCC4)cc3F)sc2N)C[C@@H](N)[C@]1(C)O [Example 83, 5-amino-N-(4-((1R,3R,4R,5S)-3-amino-4-hydroxy-4,5-dimethylcyclohexyl)pyridin-3-yl)-2-(2,6-difluoro-4-(4-hydroxytetrahydro-2H-pyran-4-yl)phenyl)thiazole-4-carboxamide] | 3.71 | 0.71 | 0.03 | 9300
11 | C[C@H]1C[C@@H](c2ccncc2NC(=O)c2nc(-c3c(F)cc(C4(F)CCOCC4)cc3F)sc2N)C[C@@H](N)[C@]1(C)O [Example 84, 5-amino-N-(4-((1R,3R,4R,5S)-3-amino-4-hydroxy-4,5-dimethylcyclohexyl)pyridin-3-yl)-2-(2,6-difluoro-4-(4-fluorotetrahydro-2H-pyran-4-yl)phenyl)thiazole-4-carboxamide] | 2.8 | 0.48 | 0.01 | 343
12 | C[C@H]1C[C@@H](c2ccncc2NC(=O)c2nc(-c3c(F)cc(C4CCOCC4)cc3F)sc2N)C[C@@H](N)[C@]1(C)O [Example 85, 5-amino-N-(4-((1R,3R,4R,5S)-3-amino-4-hydroxy-4,5-dimethylcyclohexyl)pyridin-3-yl)-2-(2,6-difluoro-4-(tetrahydro-2H-pyran-4-yl)phenyl)thiazole-4-carboxamide] | 1.99 | 0.32 | 0.01 | 706
13 | C[C@H]1C[C@@H](c2ccncc2NC(=O)c2ccc(F)c(-c3c(F)cc(C(C)(C)C#N)cc3F)n2)C[C@@H](N)[C@]1(C)O [Example 86, N-(4-((1R,3R,4R,5S)-3-amino-4-hydroxy-4,5-dimethylcyclohexyl)pyridin-3-yl)-6-(4-(2-cyanopropan-2-yl)-2,6-difluorophenyl)-5-fluoropicolinamide] | 2.74 | 2.46 | 0.03 | 66
14 | C[C@H]1C[C@@H](c2ccncc2NC(=O)c2ccc(F)c(-c3c(F)cc(N4CCOCC4)cc3F)n2)C[C@@H](N)[C@]1(C)O [Example 87, N-(4-((1R,3R,4R,5S)-3-amino-4-hydroxy-4,5-dimethylcyclohexyl)pyridin-3-yl)-6-(2,6-difluoro-4-morpholinophenyl)-5-fluoropicolinamide] | 1.91 | 0.41 | 0.01 | 57
15 | C[C@H]1C[C@@H](c2ccncc2NC(=O)c2ccc(F)c(-c3c(F)cc(C4(C#N)CCOCC4)cc3F)n2)C[C@@H](N)[C@]1(C)O [Example 88, N-(4-((1R,3R,4R,5S)-3-amino-4-hydroxy-4,5-dimethylcyclohexyl)pyridin-3-yl)-6-(4-(4-cyanotetrahydro-2H-pyran-4-yl)-2,6-difluorophenyl)-5-fluoropicolinamide] | 5.8 | 5.59 | 0.03 | 101
16 | C[C@H]1C[C@@H](c2ccncc2NC(=O)c2ccc(F)c(-c3c(F)cc(O[C@H]4CCCOC4)cc3F)n2)C[C@@H](N)[C@]1(C)O [Example 89, N-(4-((1R,3R,4R,5S)-3-amino-4-hydroxy-4,5-dimethylcyclohexyl)pyridin-3-yl)-6-(2,6-difluoro-4-((S)-tetrahydro-2H-pyran-3-yloxy)phenyl)-5-fluoropicolinamide] | 1.47 | 0.35 | 0.02 | 22
17 | C[C@H]1C[C@@H](c2ccncc2NC(=O)c2ccc(F)c(-c3c(F)cc(OC4CCOCC4)cc3F)n2)C[C@@H](O)[C@]1(C)O [Example 90, 6-(2,6-difluoro-4-(tetrahydro-2H-pyran-4-yloxy)phenyl)-N-(4-((1R,3R,4R,5S)-3,4-dihydroxy-4,5-dimethylcyclohexyl)pyridin-3-yl)-5-fluoropicolinamide] | 215 | 64.4 | 0.47 | 557
18 | CC(C)OCc1cc(F)c(-c2nc(C(=O)Nc3cnccc3[C@H]3C[C@@H](N)[C@](C)(O)[C@@H](C)C3)ccc2F)c(F)c1 [Example 91, N-(4-((1R,3R,4R,5S)-3-amino-4-hydroxy-4,5-dimethylcyclohexyl)pyridin-3-yl)-6-(2,6-difluoro-4-(isopropoxymethyl)phenyl)-5-fluoropicolinamide] | 2.4 | 1.62 | 0.07 | 102
19 | C[C@H]1C[C@@H](c2ccncc2NC(=O)c2ccc(F)c(-c3c(F)cc(COC4CCOCC4)cc3F)n2)C[C@@H](N)[C@]1(C)O [Example 92, N-(4-((1R,3R,4R,5S)-3-amino-4-hydroxy-4,5-dimethylcyclohexyl)pyridin-3-yl)-6-(2,6-difluoro-4-((tetrahydro-2H-pyran-4-yloxy)methyl)phenyl)-5-fluoropicolinamide] | 3.89 | 2.2 | 0.09 | 91
20 | C[C@H]1C[C@@H](c2ccncc2NC(=O)c2ccc(F)c(-c3c(F)cc(OCC(=O)N(C)C)cc3F)n2)C[C@@H](N)[C@]1(C)O [Example 93, N-(4-((1R,3R,4R,5S)-3-amino-4-hydroxy-4,5-dimethylcyclohexyl)pyridin-3-yl)-6-(4-(2-(dimethylamino)-2-oxoethoxy)-2,6-difluorophenyl)-5-fluoropicolinamide] | 8.44 | 1.23 | 0.09 | 1400
21 | Cc1noc(C)c1-c1cc(F)c(-c2nc(C(=O)Nc3cnccc3[C@H]3C[C@@H](N)[C@](C)(O)[C@@H](C)C3)ccc2F)c(F)c1 [Example 94, N-(4-((1R,3R,4R,5S)-3-amino-4-hydroxy-4,5-dimethylcyclohexyl)pyridin-3-yl)-6-(4-(3,5-dimethylisoxazol-4-yl)-2,6-difluorophenyl)-5-fluoropicolinamide] | 114 | 47.8 | 0.3 | 3230
